Patent US20240368560A1, “METHODS OF PRODUCING THREE-DIMENSIONAL CELLULAR TISSUES” (TOPPAN HOLDINGS INC., priority 2022, published 2024)

Columns and labels:
Format in all cases: cell-based, human
[1] = test system: three-dimensional cellular tissue (NHDF, HUVEC, HCT15/β2m cells); experiment: Formation of collagen, PSR staining (Experimental Example 1); conditions: ascorbic acid 0.1 mM, alone or with TGF-β 1 ng/mL
Procedure: The medium inside and outside the above cell culture insert was removed, and 2 mL of general-purpose medium was added, using magnesium ascorbate phosphate (product number “013-12061”, FUJIFILM Wako Pure Chemical Corporation) and TGF-β (product number “209-16544”, FUJIFILM Wako Pure Chemical Corporation), with the ascorbic acid concentration being 0 mM, […], and the cells were cultured in a CO2 incubator (37° C., 5% CO2) for 3 days. Then, the medium inside and outside the culture insert was removed, and 2.3 mL of general-purpose medium was added with the ascorbic acid concentration being 0 mM, […], and the cells were cultured in a CO2 incubator (37° C., 5% CO2) for 3 days. On day 4 and day 7 of the culture, the obtained three-dimensional cellular tissue was washed twice with PBS, and […] of 10% formalin buffer solution (product number “062-01661”, FUJIFILM Wako Pure Chemical Corporation) was added to the cell culture insert, which was then allowed to stand for 15 minutes or more and washed three times with PBS to fix the three-dimensional cellular tissue. Then, the three-dimensional cellular tissue was removed from the cell culture insert, embedded in paraffin, and cut along a line passing through the center of gravity in a direction perpendicular to the top of the three-dimensional cellular tissue (top of the cell culture insert) to prepare a […] thin slice. […]

[2] = test system: three-dimensional cellular tissue (NHDF, HUVEC, HCT15/β2m cells); experiment: Bright-field observation of three-dimensional cellular tissue formation (Experimental Example 1); conditions: day 7 of culture; ascorbic acid 0, 0.05 or 0.1 mM; TGF-β 0, 0.1, 1, 5 or 10 ng/mL
Procedure: 1.0×10^6 cells of human neonatal dermal fibroblasts NHDF (product number “CC-2509”, Lonza) and 1.5×10^4 cells of human umbilical vein endothelial cells HUVEC (product number “C2517A”, Lonza) were suspended in a 50 mM tris-HCl buffer solution (pH 7.4) containing 0.1 mg/mL heparin (product number “H3149-100KU”, Sigma) and 0.1 mg/mL collagen (product number “ASC-1-100-100”, Sigma).
Then, the cell suspension was centrifuged at room temperature at 1,000×g (gravitational acceleration) for 2 minutes, and, after removing the supernatant, resuspended in 300 μL of general-purpose medium. Then, the obtained cell suspension was seeded inside a 24-well cell culture insert (product number “3470”, Corning Incorporated) coated with 0.1 mg/mL fibronectin in advance, with 1 mL of general-purpose medium added to the outside.
Then, the cell culture insert was centrifuged at room temperature at 400×g for 2 minutes, and then allowed to stand in a CO2 incubator (37° C., 5% CO2) for 2 hours. Then, 1 mL of general-purpose medium was added to the outside the cell culture insert, and the cells were cultured in a CO2 incubator (37° C., 5% CO2) for 24 hours (the time at which this culture was started is referred to as the culture start time).
The medium outside the cell culture insert was removed, and 1 mL of general-purpose medium was added. […]

[3] = test system: three-dimensional cellular tissue (NHDF, HUVEC, HCT15/β2m cells); experiment: Formation of collagen, PSR staining, timing of ascorbic acid addition (Experimental Example 2); conditions: day 7 of culture
Procedure: Preparation of stromal cells, seeding of cancer cells and lamination of stromal cells were performed in the same manner as in Experimental Example 1 except that 2.0×10^6 cells of human neonatal dermal fibroblasts NHDF were seeded, as NHDF, in a square dish (product number “166508”, Nunc) containing 90 mL of general-purpose medium or general-purpose medium containing 0.1 mM ascorbic acid, and cultured in a CO2 incubator (37° C., 5% CO2) for 24 hours.
Then, the medium inside and outside the cell culture insert was removed, and 2.3 mL of general-purpose medium or general-purpose medium containing 0.1 mM ascorbic acid was added, and the cells were cultured in a CO2 incubator (37° C., 5% CO2) for 3 days.
Subsequently, the medium inside and outside the culture insert was removed, and 2.3 mL of general-purpose medium or general-purpose medium containing 0.1 mM ascorbic acid was added, and the cells were cultured in a CO2 incubator (37° C., 5% CO2) for 3 days.
On day 7 of the culture, the three-dimensional cellular tissue was washed twice with PBS, and 300 μL of 10% formalin buffer solution (product number “062-01661”, FUJIFILM Wako Pure Chemical Corporation) was added to the cell culture insert, which was then allowed to stand for 15 minutes or more and washed three times with PBS to fix the three-dimensional cellular tissue. […]

Compound | formation of collagen (PSR staining, PSR ratio) [1] | formation of three-dimensional cellular tissue (microscopic observation) [2] | formation of collagen (PSR staining) ([3]; 0.1 mM ascorbic acid added after formation of the three-dimensional cellular tissue) | formation of collagen (PSR staining) ([3]; 0.1 mM ascorbic acid added to NHDF in advance (24 hours before tissue formation))
O=C1O[C@H]([C@@H](O)CO)C(O)=C1O [ascorbic acid] | fiber-like collagen was formed | a three-dimensional cellular tissue was formed | collagen was found to be formed | no change in formation of collagen
TGF-β | – | the cellular tissue shrunk and became detached from the cell culture insert, and no three-dimensional cellular tissue was formed | – | –
